Patent publication US12115193B2, “Methods of using RARγ agonists for cancer treatment” (Io Therapeutics, Inc., priority 2021, dated 2024)

Columns and labels:
[1] = system: EMT6 cells; test: EMT6 in vitro culture viability, Cell Titer Glo Assay; type: cell-based, mouse; conditions: 5 days; for IC50: Mus musculus, 120 h
Experimental: EMT6 cells were cultured in vitro for 5 days the presence of a multiple concentrations of the RARγ agonists GA1E, GA2E, and GA3Ep and viability assessed by the Cell Titer Glo Assay® (Promega).

[2] = molecular target: T1, RARγ (Homo sapiens, UniProt P13631); test: RARγ transactivation assay (luciferase reporter); type: cell-based
T1 construct: expression plasmids encoding the full-length receptors RARα and RARγ; expressed in transfected cells
T1 sequence (P13631 1-454): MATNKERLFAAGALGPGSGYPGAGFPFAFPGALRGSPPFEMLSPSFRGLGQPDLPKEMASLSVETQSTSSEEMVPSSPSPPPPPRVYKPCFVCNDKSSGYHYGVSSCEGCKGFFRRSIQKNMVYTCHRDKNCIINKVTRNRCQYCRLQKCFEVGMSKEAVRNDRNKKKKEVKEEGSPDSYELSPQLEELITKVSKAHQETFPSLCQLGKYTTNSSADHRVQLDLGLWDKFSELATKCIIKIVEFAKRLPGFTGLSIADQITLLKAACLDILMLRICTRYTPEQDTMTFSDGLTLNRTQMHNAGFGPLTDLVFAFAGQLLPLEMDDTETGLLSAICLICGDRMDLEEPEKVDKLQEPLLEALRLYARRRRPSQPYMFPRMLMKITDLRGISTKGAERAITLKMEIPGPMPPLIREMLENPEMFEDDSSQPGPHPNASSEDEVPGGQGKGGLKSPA
Experimental: Transactivation assays were conducted to test the specificity of binding activity of GA1E and GA2E for RARα and RARγ. Retinoic acid receptor transactivation activity and binding efficiencies were determined essentially as described in U.S. Pat. Nos. 5,298,429 and 5,071,773, incorporated by reference herein for all they teach regarding transactivation assays. Transactivation assays employed expression plasmids encoding the full-length receptors RARα and RARγ. Reporter plasmids containing the herpes virus thymidine kinase promoter and the appropriate retinoic acid receptor response element (RAREs) were positioned upstream of an open coding region encoding firefly luciferase.
The ability of GA1E and GA2E to activate RARα and RARγ in a transactivation assay was tested over a concentration range of 0.5 to 625 nM (GA2E) or 0.05 to 3320 nM (GA1E). GA1E induced less than 10% transactivation for RARα across the whole concentration range, but over 50% transactivation for RARγ at concentrations ≥25 nM and over 70% at concentrations 125 nM (FIG. 3A). GA2E induced more than 85% transactivation at all tested concentrations and less than 10% transactivation of RARα at concentrations of ≤25 nM (FIG. 3B).

[3] = system: Lewis lung carcinoma (LLC) cells; test: Lewis lung carcinoma in vitro culture viability, Cell Titer Glo Assay; type: cell-based, mouse; conditions: for IC50: Mus musculus, Lewis lung carcinoma
Experimental: Lewis lung carcinoma (LLC) cells were cultured in vitro the presence of a multiple concentrations of the RARγ agonists GA1E, GA2E, and GA3Ep and viability assessed by the Cell Titer Glo Assay®.

[4] = system: PBMC; test: CMV recall antigen-stimulated PBMC: IFNγ production and CFSE proliferation; type: cell-based; conditions: four days, vs vehicle control; for IFNγ production: 0.1 to 1000 nM; for Proliferation of CD8+ cells (CFSE dilution): increase small
Experimental: Peripheral blood mononuclear cells (PBMC) from a cytomegalovirus (CMV)-positive donor were labeled with carboxyfluorescein succinimidyl ester (CFSE) and stimulated with CMV recall antigens at […]. The PBMC were then treated with one of three difference RARγ selective agonists or vehicle (DMSO) control and incubated at 37° C., 5% CO2 for four days. Culture supernatant was harvested and assayed for IFNγ production and the PBMC evaluated for proliferation by flow cytometry for CFSE dilution.
CFSE is a fluorescent reactive cell membrane permeable dye. After it is taken up, CFSE covalently modifies proteins and is retained in cells for long periods of time. The CFSE-modified proteins are generally evenly divided between daughter cells at each division so that fluorescent intensity of the cells falls by have at each division. Thus diminution of the dye's fluorescent signal can be used as a measure of proliferation.

[5] = system: TIL in EMT6 tumors; test: Flow cytometry of excised EMT6 tumors (Example 4); type: in vivo, mouse
From the text: At the end of the study of Example 3, the tumors were excised, the cells disaggregated and dispersed without use of proteases, stained with various agents, and subjected to flow cytometry. FIG. 5A-B present the results of the flow cytometry both as a percentage of cells and as the number of cells per tumor. […] Of these live cells, a substantial proportion were leukocytes (FIG. 5A, “CD45” panels). […] The majority of the T cells were CD4+(FIG. 5A, “CD4” panels), expected to be predominantly helper cells. Of the CD4^+ cells, only small proportions were T memory cells (expected to be predominantly TH1 memory cells) based on intracellular staining for IFNγ (FIG. 5B, “TH IFGγ” panels), TH17 cells based in intracellular staining for IL-17 (FIG. 5B, “TH IL17” panels), or Treg cell based on staining for CD25 and FoxP3 (FIG. 5B, “Treg” panels). About 25-30% of the T cells were CD8^+ (FIG. 5B, “CD8 T” panels), expected to be predominantly cytotoxic cells.

[6] = system: EMT6 cells; test: EMT6 syngeneic mouse model of triple negative breast cancer (Example 3); type: in vivo; conditions: 21 daily oral doses 10 mg/kg; at the end of the study
Experimental: The RARγ agonists tazarotenic acid and GA2E were evaluated in the EMT6 syngeneic mouse model of breast cancer. 5×10^5 EMT6 cells were injected into the mammary fat pad of immunocompetent female Balb/c mice. When the tumors reached an average volume of 50-150 mm^3, mice were matched by tumor size into control or treatment groups (n=10-11).
The mice were treated with 21 daily oral doses 10 mg/kg of 1 mg/ml tazarotenic acid or GA2E, or vehicle control, starting on Day 0. Tumor volume was measured, and the mice weighed, on days 0, 1, 3, 6, 8, 10, 13, 15, 17, 20, and 21.

| Compound | effect on viability as concentrations exceeded 10 μM [1] | effect on viability at concentrations below 1 μM [1] | IC50 [1] | transactivation for RARγ ([2]; at concentrations 125 nM) | transactivation for RARγ ([2]; at concentrations ≥25 nM) | effect on viability as concentrations exceeded 10 μM [3] | effect on viability at concentrations below 1 μM [3] | IC50 [3] | IFNγ production [4] | Proliferation of CD8+ cells (CFSE dilution) [4] | T cells (anti-CD3) as mean percentage of the leukocytes in the tumor ([5]; 10 mg/kg oral daily, end of study) | proportion of CD8+ T cells that were memory cells (intracellular IFNγ) ([5]; vs vehicle control, did not achieve statistical significance) | tumor growth inhibition [6] |
| --- | --- | --- | --- | --- | --- | --- | --- | --- | --- | --- | --- | --- | --- |
| CCc1oc2ccc(C(/C=C/c3ccc(C(=O)O)cc3F)=N/O)cc2c1C(C)(C)C [GA1E, 4-((1E,3E)-3-(3-(tert-butyl)-2-ethyl-benzofuran-5-yl)-3-(hydroxyimino)prop-1-en-1-yl)-3-fluorobenzoic acid] | rapidly became toxic | no effect | 52 µM | over 70% | over 50% | rapidly became toxic | no effect | 96 µM |  |  |  |  |  |
| CC1(C)CCC(C)(C)c2cc(C(/C=C/c3ccc(C(=O)O)cc3)=N/O)ccc21 [GA3Ep] | rapidly became toxic | no effect | 101 µM |  |  | rapidly became toxic | no effect | 45 µM | increased IFNγ production substantially | increased |  |  |  |
| CC1(C)CCSc2ccc(C#Cc3ccc(C(=O)O)cn3)cc21 [tazarotenic acid, reference compound] |  |  |  |  |  |  |  |  | increased IFNγ production substantially | increased | ~10% | numerically increased | 44% |
